From patent US11964973B2 (priority 2019, dated 2024) come the findings set out here.

The test system of one test is Human venous whole blood (IFN-γ). The test can be described thus: Human whole blood IFN-γ assay. Format: cell-based. Particulars: Homo sapiens, 24 h, human whole blood, anti-CD3 plus anti-CD28, 24 hours; read-out: INFg Whole Blood Normalized Agonist EC50. The method, then: Assay 10: Human Whole Blood IFN-γ Assay
Human venous whole blood (22.5 μL per well), obtained from healthy donors, was pre-treated with compounds for one hour at 37° C. in a humidified 95% air/5% CO2 incubator. The blood was stimulated with 2.5 μL anti-human CD3 and anti-CD28 mAb at a final concentration of 1 μg/mL each for 24 hours at 37° C. IFN-γ in the supernatants was measured using AlphLISA kit (Cat #AL217).
On to `C[C@@H]1CN(c2cc(=O)n(C)c3ccc(C#N)nc23)CC[C@H]1Oc1ccc(OC(F)(F)F)cc1` (racemic) [Example 79, (+/−) 6-cyano-1-methyl-4-(trans-3-methyl-4-(4-(trifluoromethoxy)phenoxy)piperidin-1-yl)-1,5-naphthyridin-2(1H)-one], for which the EC50 was determined as 2.2 µM.

For `C[C@@H]1CN(c2cc(=O)n(C)c3ccc(C#N)nc23)CC[C@H]1Oc1ccc(OC(F)(F)F)cc1` (single isomer, unassigned) [Example 80, 6-cyano-1-methyl-4-(trans-3-methyl-4-(4-(trifluoromethoxy)phenoxy)piperidin-1-yl)-1,5-naphthyridin-2(1H)-one (rel)], the EC50 is 2.4 µM. For the compound `C[C@@H]1CN(c2cc(=O)n(C)c3ccc(C#N)nc23)CC[C@H]1Oc1c(F)cccc1F` [Example 125, 8-((3R,4R)-4-(2,6-difluorophenoxy)-3-methylpiperidin-1-yl)-5-methyl-6-oxo-5,6-dihydro-1,5-naphthyridine-2-carbonitrile], the EC50 was 20 µM. Same read-out and setting: then `CC[C@@H]1CN(c2cc(=O)n(C)c3ccc(C#N)nc23)CC[C@H]1Oc1ccc(C(C)(C)CC)cc1` (racemic) [Example 149, 8-((3R,4R)-3-ethyl-4-(4-(tert-pentyl)phenoxy)piperidin-1-yl)-5-methyl-6-oxo-5,6-dihydro-1,5-naphthyridine-2-carbonitrile], with 1.4 µM; and `C[C@@H]1CN(c2cc(=O)n(C)c3ccc(C#N)nc23)CC[C@H]1Oc1ccc(C2CCCCC2)cc1` (racemic) [Example 106, 8-((3R,4R)-4-(4-cyclohexylphenoxy)-3-methylpiperidin-1-yl)-5-methyl-6-oxo-5,6-dihydro-1,5-naphthyridine-2-carbonitrile], with 2.2 µM. With `C[C@@H]1CN(c2cc(=O)n(C)c3ccc(C#N)nc23)CC[C@H]1Oc1c(F)cccc1C(F)(F)F` (racemic) [Example 124, 8-((3R,4R)-4-(2-fluoro-6-(trifluoromethyl)phenoxy)-3-methylpiperidin-1-yl)-5-methyl-6-oxo-5,6-dihydro-1,5-naphthyridine-2-carbonitrile], the EC50 was 20 µM. Still for that read-out and setting: with `C[C@@H]1CN(c2cc(=O)n(C)c3ccc(C#N)nc23)CC[C@H]1Oc1ccc(F)cc1` [Example 128, 8-((3R,4R)-4-(4-fluorophenoxy)-3-methylpiperidin-1-yl)-5-methyl-6-oxo-5,6-dihydro-1,5-naphthyridine-2-carbonitrile] the figure was 20 µM.

The same test, now with this note: Homo sapiens, human whole blood IFN-γ; read-out: INFg Whole Blood.
On to `CC(C)c1cccc(O[C@H]2CCN(c3cc(=O)n(C)c4ccc(C#N)nc34)C[C@H]2C)n1` (single isomer, unassigned) [Example 215], for which the EC50 stood at 2.1 µM. `C[C@@H]1CN(c2cc(=O)n(C)c3ccc(C#N)nc23)CC[C@@H]1Oc1ncccn1` [Example 217, 5-methyl-8-((3R,4S)-3-methyl-4-(pyrimidin-2-yloxy)piperidin-1-yl)-6-oxo-5,6-dihydro-1,5-naphthyridine-2-carbonitrile]: the EC50 stood at 20 µM. As for `C[C@@H]1CN(c2cc(=O)n(C)c3ccc(C#N)nc23)CC[C@@H]1Oc1ccc(C(F)(F)F)cn1` [Example 225, 5-methyl-8-((3R,4S)-3-methyl-4-((5-(trifluoromethyl)pyridin-2-yl)oxy)piperidin-1-yl)-6-oxo-5,6-dihydro-1,5-naphthyridine-2-carbonitrile], the EC50 was 1.8 µM. In the case of `CC(C)c1ccnc(O[C@H]2CCN(c3cc(=O)n(C)c4ccc(C#N)nc34)C[C@H]2C)c1` [Example 211, 8-((3R,4S)-4-((4-isopropylpyridin-2-yl)oxy)-3-methylpiperidin-1-yl)-5-methyl-6-oxo-5,6-dihydro-1,5-naphthyridine-2-carbonitrile], the EC50 was 3.9 µM.

As for `CC(C)Oc1ccc(OC2CCN(c3cc(=O)n(C)c4ccc(C#N)nc34)CC2(C)C)nc1` (racemic) [Example 232, (+/−) 8-(4-((5-isopropoxypyridin-2-yl)oxy)-3,3-dimethylpiperidin-1-yl)-5-methyl-6-oxo-5,6-dihydro-1,5-naphthyridine-2-carbonitrile], the EC50 stood at 7 µM. Take `CCCc1cc(O[C@@H]2CCN(c3cc(=O)n(C)c4ccc(C#N)nc34)C[C@H]2CC)ccc1F` [Example 195, 8-((3R,4R)-3-ethyl-4-(4-fluoro-3-propylphenoxy)piperidin-1-yl)-5-methyl-6-oxo-5,6-dihydro-1,5-naphthyridine-2-carbonitrile]: the EC50 stood at 0.33 µM. Turning to `C[C@@H]1CN(c2cc(=O)n(C)c3ccc(C#N)nc23)CC[C@@H]1Oc1ccc(C(F)(F)F)cc1` (racemic) [Example 186, (+/−) 5-methyl-8-(cis-3-methyl-4-(4-(trifluoromethyl)phenoxy)piperidin-1-yl)-6-oxo-5,6-dihydro-1,5-naphthyridine-2-carbonitrile], the EC50 is 1.6 µM. Consider `C[C@@H]1CN(c2cc(=O)n(C)c3ccc(C#N)nc23)CC[C@@H]1OCc1ccc(OC(F)(F)F)cc1` (racemic) [Example 235, (+/−) 5-methyl-8-(cis-3-methyl-4-((4-(trifluoromethoxy)benzyl)oxy)piperidin-1-yl)-6-oxo-5,6-dihydro-1,5-naphthyridine-2-carbonitrile], for which the EC50 was found to be 5.2 µM.

Still in this test, the particulars now being: Homo sapiens, read-out: INFg Whole Blood, human whole blood IFN-γ.
`CC[C@@H]1CN(c2cc(=O)n(C)c3ccc(C#N)nc23)CC[C@@H]1Oc1ccc(OC(C)C)cn1` [Example 202, 8-((3R,4S)-3-ethyl-4-((5-isopropoxypyridin-2-yl)oxy)piperidin-1-yl)-5-methyl-6-oxo-5,6-dihydro-1,5-naphthyridine-2-carbonitrile]: the EC50 is 2 µM.

With `CC[C@@H]1CN(c2cc(=O)n(C)c3ccc(C#N)nc23)CC[C@H]1Oc1cccc(C(C)(C)C)c1` [Example 196, 8-((3R,4R)-4-(3-(tert-butyl)phenoxy)-3-ethylpiperidin-1-yl)-5-methyl-6-oxo-5,6-dihydro-1,5-naphthyridine-2-carbonitrile], the EC50 was found to be 0.29 µM.

Still in this test, the particulars now being: human whole blood IFN-γ; read-out: INFg Whole Blood.
On to `CO[C@H]1CN(c2cc(=O)n(C)c3ccc(C#N)nc23)CC[C@@H]1Oc1ccc(OC(C)C)cn1` (racemic) [Example 269, (±)-trans-8-(4-((5-isopropoxypyridin-2-yl)oxy)-3-methoxypiperidin-1-yl)-5-methyl-6-oxo-5,6-dihydro-1,5-naphthyridine-2-carbonitrile], for which the EC50 was 1.6 µM. The same measure, in the same setting: then `CC(C)Oc1ccc(O[C@H]2CCN(c3cc(=O)n(C)c4ccc(C#N)nc34)C[C@@H]2O)nc1` (racemic) [Example 268, (±)-trans-8-(3-hydroxy-4-((5-isopropoxypyridin-2-yl)oxy)piperidin-1-yl)-5-methyl-6-oxo-5,6-dihydro-1,5-naphthyridine-2-carbonitrile], with 13 µM; and `CC(C)c1ccnc(O[C@H]2CCN(c3cc(=O)n(C)c4ccc(C#N)nc34)C[C@H]2C)c1` (single isomer, unassigned) [Example 213], with 4.9 µM; and `CO[C@@H]1CN(c2nc(=O)n(C)c3ccc(C#N)nc23)CC[C@H]1Oc1cccc(C(F)(F)F)c1` (racemic) [Example 277], with 4.5 µM. Same read-out and setting: then `C[C@@H]1CN(c2cc(=O)n(C)c3ccc(C#N)nc23)CC[C@@H]1Oc1ccc(C(F)(F)F)cn1` (single isomer, unassigned) [Example 227], with 4.2 µM. Same read-out and setting: then `CC(C)Oc1ccc(OC2CCN(c3cc(=O)n(C)c4ccc(C#N)nc34)CC2(C)C)nc1` (single isomer, unassigned) [Example 234, 8-(4-((5-isopropoxypyridin-2-yl)oxy)-3,3-dimethylpiperidin-1-yl)-5-methyl-6-oxo-5,6-dihydro-1,5-naphthyridine-2-carbonitrile (rel)], with 9.3 µM.

Staying with this test, now noted: human whole blood, anti-CD3 plus anti-CD28, 24 hours; read-out: INFg Whole Blood Normalized Agonist EC50.
As to `CC[C@@H]1CN(c2cc(=O)n(C)c3ccc(C#N)nc23)CC[C@H]1Oc1ccc(C(C)(C)C)cc1` (single isomer, unassigned) [Example 154], the EC50 was 11 µM. The same measure, in the same setting: with `CC[C@@H]1CN(c2cc(=O)n(C)c3ccc(C#N)nc23)CC[C@H]1Oc1cccc(C2CC2)c1` [Example 157, 8-((3R,4R)-4-(3-cyclopropylphenoxy)-3-ethylpiperidin-1-yl)-5-methyl-6-oxo-5,6-dihydro-1,5-naphthyridine-2-carbonitrile] the figure was 2.8 µM. The same measure, in the same setting: with `C[C@@H]1CN(c2cc(=O)n(C)c3ccc(C#N)nc23)CC[C@H]1Oc1ccc(F)c(F)c1` (single isomer, unassigned) [Example 105] the figure was 2 µM. For `CC[C@@H]1CN(c2cc(=O)n(C)c3ccc(C#N)nc23)CC[C@H]1Oc1ccc(C(F)(F)F)cc1` (single isomer, unassigned) [Example 148], the EC50 is 12 µM. As for `C[C@@H]1CN(c2cc(=O)n(C)c3ccc(C#N)nc23)CC[C@H]1Oc1ccc(C(F)(F)F)cc1` (single isomer, unassigned) [Example 99], the EC50 was 2.9 µM.

Staying with this test, now noted: read-out: INFg Whole Blood; human whole blood IFN-γ.
Consider `CCO[C@@H]1CN(c2nc(=O)n(C)c3ccc(C#N)nc23)CC[C@H]1Oc1cccc(C(F)(F)F)c1` [Example 278, 4-((3R,4R)-3-ethoxy-4-(3-(trifluoromethyl)phenoxy)piperidin-1-yl)-1-methyl-2-oxo-1,2-dihydropyrido[3,2-d]pyrimidine-6-carbonitrile], for which the EC50 was 0.64 µM. As for `CCO[C@@H]1CN(c2nc(=O)n(C)c3ccc(C#N)nc23)CC[C@H]1Oc1cccc(C(F)(F)F)c1` [Example 279, 4-((3R,4R)-3-ethoxy-4-(3-(trifluoromethyl)phenoxy)piperidin-1-yl)-1-methyl-2-oxo-1,2-dihydropyrido[3,2-d]pyrimidine-6-carbonitrile], the EC50 was found to be 8.7 µM.
